Read-outs that look alike come from different tables or passages of the source.
Tests used:
human arginase I = biological target: T1, human arginase I (Homo sapiens, UniProt P05089); test: Arginase inhibition, QuantiChrom colorimetric urea assay, IC50 converted to Ki; format: biochemical
T1 sequence (P05089 1-322): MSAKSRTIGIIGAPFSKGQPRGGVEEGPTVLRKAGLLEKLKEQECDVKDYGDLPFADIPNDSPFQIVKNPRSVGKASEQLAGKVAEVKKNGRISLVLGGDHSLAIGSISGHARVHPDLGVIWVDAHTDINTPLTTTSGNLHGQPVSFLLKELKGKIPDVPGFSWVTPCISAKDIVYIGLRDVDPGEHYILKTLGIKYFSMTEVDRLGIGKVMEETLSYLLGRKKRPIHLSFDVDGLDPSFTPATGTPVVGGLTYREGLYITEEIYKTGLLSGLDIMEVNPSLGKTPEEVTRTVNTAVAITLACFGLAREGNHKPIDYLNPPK
Method: (§1) For some compounds, their inhibitory potency at pH 7.5 was compared to the inhibitory potency of ABH at pH 7.5.
(§2) Quantitative determination of arginase activity was performed in a 96-well format by a colorimetric method using the QuantiChrom™ Arginase Assay Kit available from BioAssay Systems (Hayward, Calif., Catalog No. DARG-200) according to the manufacturer's protocol. Modifications were made to reagent quantities to suit the assaying of a highly purified sample.
(§3) The intensity of the color was directly proportional to the arginase activity in the sample.
(§4) The rate of urea production was measured in the presence of twelve different concentrations of each potential inhibitor compound. In a typical assay, seven different compounds were tested relative to a control inhibitor (e.g. ABH) against one enzyme (either human ArgI or human ArgII) at a particular pH (either 9.5 or 7.5). The pH of the solution was controlled using an appropriate pH buffering compound at 60 mM concentrations; for example, 60 mM glycine (pH 9.5) or 60 mM HEPES (pH 7.5). The half maximal inhibitory concentration (IC50) was determined by constructing a dose-response curve.

human arginase II = biological target: T2, human arginase II (Homo sapiens, UniProt P78540); test: as above; format: biochemical
T2 sequence (P78540 23-354): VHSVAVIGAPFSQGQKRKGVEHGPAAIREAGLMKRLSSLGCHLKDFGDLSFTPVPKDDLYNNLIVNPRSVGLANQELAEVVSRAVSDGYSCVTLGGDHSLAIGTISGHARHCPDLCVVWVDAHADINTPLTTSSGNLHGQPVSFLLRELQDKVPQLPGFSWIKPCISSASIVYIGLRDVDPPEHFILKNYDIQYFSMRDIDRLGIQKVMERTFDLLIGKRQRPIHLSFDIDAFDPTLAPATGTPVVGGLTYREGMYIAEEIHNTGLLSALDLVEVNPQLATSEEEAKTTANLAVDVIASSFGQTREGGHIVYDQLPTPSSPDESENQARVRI
Method: as §1, §2, §3, §4

[1] = Table 3, pH 7.5, read-out: human Arginase I pH 7.5, Ki assigned value
[2] = Table 3, pH 9.5, read-out: human Arginase I pH 9.5, Ki assigned value
[3] = Table 3, pH 7.5, read-out: human Arginase II pH 7.5, Ki assigned value
[4] = Table 3, pH 9.5, read-out: human Arginase II pH 9.5, Ki assigned value
[5] = Table 2, pH 7.5, read-out: human arginase I pH 7.5, Ki assigned value
[6] = Table 2, pH 9.5, read-out: human arginase I pH 9.5, Ki assigned value
[7] = Table 2, pH 7.5, read-out: human arginase II pH 7.5, Ki assigned value
[8] = Table 2, pH 9.5, read-out: human arginase II pH 9.5, Ki assigned value

SMILES | Ki (human arginase I; [1]) [µM] | Ki (human arginase I; [2]) [µM] | Ki (human arginase II; [3]) [µM] | Ki (human arginase II; [4]) [µM] | Ki (human arginase I; [5]) [µM] | Ki (human arginase I; [6]) [µM] | Ki (human arginase II; [7]) [µM] | Ki (human arginase II; [8]) [µM]
NC(CCCCB(O)O)(CCCN1CCN(Cc2ccc(F)cc2)CC1)C(=O)O (stereo not drawn) [Example 11] |  |  |  |  | < 0.01 | 0.011 to 0.05 | 0.011 to 0.05 | 0.011 to 0.05
NC(CCCCB(O)O)(CCN1CCN(Cc2ccc(Cl)c(Cl)c2)CC1)C(=O)O (stereo not drawn) [Example 15] | 0.101 to 0.25 | 0.101 to 0.25 | > 0.4 | 0.051 to 0.1 |  |  |  | 
NC(CCCCB(O)O)(CCCN1CCN(c2ccc(Cl)c(Cl)c2)CC1)C(=O)O (stereo not drawn) [Example 16] | 0.011 to 0.05 | 0.051 to 0.1 | 0.051 to 0.1 | 0.011 to 0.05 |  |  |  | 
NC(CCCCB(O)O)(CCCN1CCCCC1c1ccc(F)cc1)C(=O)O (stereo not drawn) [Example 17] |  |  |  |  | < 0.01 | 0.011 to 0.05 | 0.101 to 0.25 | 0.011 to 0.05
NC(CCCCB(O)O)(CCC1CCCCN1Cc1cc(F)cc(F)c1)C(=O)O (stereo not drawn) [Example 20] | 0.011 to 0.05 | 0.011 to 0.05 | 0.101 to 0.25 | 0.101 to 0.25 |  |  |  | 
NC(CCCCB(O)O)(CCC1CCCCN1Cc1ccc(F)c(F)c1)C(=O)O (stereo not drawn) [Example 21] | 0.011 to 0.05 | 0.011 to 0.05 | 0.051 to 0.1 | 0.051 to 0.1 |  |  |  | 
NC(CCCCB(O)O)(CCCN1CCC(Cc2ccc(F)c(F)c2)CC1)C(=O)O (stereo not drawn) [Example 28] |  |  |  |  | < 0.01 | < 0.01 | 0.051 to 0.1 | < 0.01
NC(CCCCB(O)O)(CCCN1CCC(NC(=O)c2ccccc2)CC1)C(=O)O (stereo not drawn) [Example 44] | < 0.01 | 0.011 to 0.05 | < 0.01 | 0.011 to 0.05 |  |  |  | 
NC(CCCCB(O)O)(CCCN1CCc2ccccc2C1)C(=O)O (stereo not drawn) [Example 45] | < 0.01 | 0.011 to 0.05 | < 0.01 | 0.011 to 0.05 |  |  |  | 
CN1CCN(CCCC(N)(CCCCB(O)O)C(=O)O)C(c2ccccc2)C1 (stereo not drawn) [Example 46] | 0.011 to 0.05 | 0.011 to 0.05 | 0.011 to 0.05 | < 0.01 |  |  |  | 
NC(CCCCB(O)O)(CCCN1CCCC1c1ccccc1C(F)(F)F)C(=O)O (stereo not drawn) [Example 51] | 0.011 to 0.05 | 0.051 to 0.1 | 0.011 to 0.05 | 0.101 to 0.25 |  |  |  | 

Second part, the molecule after the results:

Ki (human arginase I; [1]) [µM] | Ki (human arginase I; [2]) [µM] | Ki (human arginase II; [3]) [µM] | Ki (human arginase II; [4]) [µM] | Ki (human arginase I; [5]) [µM] | Ki (human arginase I; [6]) [µM] | Ki (human arginase II; [7]) [µM] | Ki (human arginase II; [8]) [µM] | SMILES
< 0.01 | 0.011 to 0.05 | 0.011 to 0.05 | 0.051 to 0.1 |  |  |  |  | NC(CCCCB(O)O)(CCCN1CCN(Cc2cccc(F)c2F)CC1)C(=O)O (stereo not drawn) [Example 7]
< 0.01 | 0.051 to 0.1 | 0.011 to 0.05 | 0.011 to 0.05 |  |  |  |  | NC(CCCCB(O)O)(CCCN1CCN(Cc2cccc(C(F)(F)F)c2)CC1)C(=O)O (stereo not drawn) [Example 9]
< 0.01 | 0.011 to 0.05 | < 0.01 | 0.011 to 0.05 |  |  |  |  | NC(CCCCB(O)O)(CCCN1CCN(CCc2ccccc2)CC1)C(=O)O (stereo not drawn) [Example 14]
< 0.01 | 0.011 to 0.05 | < 0.01 | 0.011 to 0.05 |  |  |  |  | NC(CCCCB(O)O)(CCCN1CCCC(c2ccccc2)C1)C(=O)O (stereo not drawn) [Example 26, 2-amino-6-borono-2-(3-(3-phenylpiperidin-1-yl)propyl)hexanoic acid]
< 0.01 | 0.011 to 0.05 | < 0.01 | 0.051 to 0.1 |  |  |  |  | NC(CCCCB(O)O)(CCCN1CCC2(CC1)C(=O)NCN2c1ccccc1)C(=O)O (stereo not drawn) [Example 31]
< 0.01 | < 0.01 | < 0.01 | 0.011 to 0.05 |  |  |  |  | NC(CCCCB(O)O)(CCCN1CCC(Oc2ccc(C(F)(F)F)cc2)CC1)C(=O)O (stereo not drawn) [Example 34]
< 0.01 | < 0.01 | < 0.01 | 0.011 to 0.05 |  |  |  |  | COc1ccc(C2CCN(CCCC(N)(CCCCB(O)O)C(=O)O)CC2)cc1 (stereo not drawn) [Example 37]
< 0.01 | < 0.01 | < 0.01 | 0.011 to 0.05 |  |  |  |  | NC(CCCCB(O)O)(CCCN1CCC(O)(Cc2ccccc2)CC1)C(=O)O (stereo not drawn) [Example 39]
< 0.01 | < 0.01 | < 0.01 | 0.011 to 0.05 |  |  |  |  | NC(CCCCB(O)O)(CCCN1CCC(O)(c2ccc(Cl)cc2)CC1)C(=O)O (stereo not drawn) [Example 40]
< 0.01 | 0.011 to 0.05 | < 0.01 | 0.011 to 0.05 |  |  |  |  | NC(CCCCB(O)O)(CCCN1CCN(c2ccc(C(F)(F)F)cn2)CC1)C(=O)O (stereo not drawn) [Example 41]

From patent US9447122B2, “Arginase inhibitors and methods of use thereof” (AstraZeneca AB, priority 2010, dated 2016)
